Where two headings read alike, the source gives them in different places.
Tests used:
[1] = biological target: T1, zebrafish monoamine oxidase (zMAO) (Danio rerio, UniProt Q6NSN2); experiment: Steady-state kinetics of zMAO-catalyzed amine substrate oxidation; format: biochemical; conditions: for ^Dkcat: deuterium kinetic isotope effect; for kcat (H): air saturation (240 μM O2); for kcat (D): α,α-2[H] benzylamine analogue
T1 sequence (Q6NSN2 1-522): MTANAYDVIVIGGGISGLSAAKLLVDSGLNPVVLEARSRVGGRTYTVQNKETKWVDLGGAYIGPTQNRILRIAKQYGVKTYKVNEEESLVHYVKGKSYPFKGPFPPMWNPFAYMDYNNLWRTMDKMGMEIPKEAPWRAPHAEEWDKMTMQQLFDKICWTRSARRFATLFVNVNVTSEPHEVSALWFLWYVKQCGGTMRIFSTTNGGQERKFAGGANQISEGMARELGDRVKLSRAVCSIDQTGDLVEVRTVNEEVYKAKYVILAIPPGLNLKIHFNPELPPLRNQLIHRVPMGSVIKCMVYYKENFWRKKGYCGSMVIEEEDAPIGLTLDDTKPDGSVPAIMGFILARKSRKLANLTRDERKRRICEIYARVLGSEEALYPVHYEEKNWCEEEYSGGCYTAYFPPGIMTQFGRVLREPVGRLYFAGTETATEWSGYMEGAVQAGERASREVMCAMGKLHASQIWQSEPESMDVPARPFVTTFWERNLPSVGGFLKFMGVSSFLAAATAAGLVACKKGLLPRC

hMAO B [2] = biological target: T2, hMAO B (Homo sapiens, UniProt P27338); conditions: cited from earlier work
T2 sequence (P27338 1-520): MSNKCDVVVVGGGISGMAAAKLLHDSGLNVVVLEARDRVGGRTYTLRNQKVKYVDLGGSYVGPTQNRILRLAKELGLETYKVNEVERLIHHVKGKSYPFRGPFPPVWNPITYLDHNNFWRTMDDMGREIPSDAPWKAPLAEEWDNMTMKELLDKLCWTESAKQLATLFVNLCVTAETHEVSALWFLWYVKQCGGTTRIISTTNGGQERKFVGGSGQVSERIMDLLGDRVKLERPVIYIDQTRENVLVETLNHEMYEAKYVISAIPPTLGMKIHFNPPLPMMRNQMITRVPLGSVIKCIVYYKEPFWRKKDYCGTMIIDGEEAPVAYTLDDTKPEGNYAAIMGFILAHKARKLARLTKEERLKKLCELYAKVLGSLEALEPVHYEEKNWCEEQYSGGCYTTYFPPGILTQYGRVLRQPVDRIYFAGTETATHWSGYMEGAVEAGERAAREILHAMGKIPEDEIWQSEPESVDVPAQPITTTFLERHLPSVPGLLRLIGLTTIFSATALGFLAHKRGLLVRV

hMAO A [3] = biological target: T3, hMAO A (Homo sapiens, UniProt P21397); conditions: ref Li, cited from earlier work
T3 sequence (P21397 1-527): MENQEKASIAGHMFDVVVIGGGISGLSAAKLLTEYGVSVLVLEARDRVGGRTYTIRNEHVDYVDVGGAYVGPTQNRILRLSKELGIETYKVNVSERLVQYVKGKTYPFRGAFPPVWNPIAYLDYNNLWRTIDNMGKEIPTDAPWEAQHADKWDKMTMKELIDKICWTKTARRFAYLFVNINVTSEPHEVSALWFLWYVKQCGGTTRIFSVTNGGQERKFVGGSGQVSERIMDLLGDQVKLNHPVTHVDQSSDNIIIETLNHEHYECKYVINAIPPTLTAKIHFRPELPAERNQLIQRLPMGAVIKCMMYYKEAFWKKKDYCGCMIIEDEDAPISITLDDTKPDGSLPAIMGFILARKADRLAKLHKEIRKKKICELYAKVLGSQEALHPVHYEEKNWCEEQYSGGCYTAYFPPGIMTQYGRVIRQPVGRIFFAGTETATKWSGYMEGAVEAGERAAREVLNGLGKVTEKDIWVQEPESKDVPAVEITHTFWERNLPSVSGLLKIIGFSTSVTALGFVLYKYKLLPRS

[4] = biological target: T1, zebrafish monoamine oxidase (zMAO); experiment: Reversible inhibition of zMAO with kynuramine as substrate; format: biochemical
hMAO B [5] = biological target: T2, hMAO B; experiment: Reversible inhibition of hMAO B; format: biochemical; conditions: no reference mark, indole analogues tested up to 100 μM
hMAO A [6] = biological target: T3, hMAO A; conditions: cited from earlier work; for Ki: hMAO A
hMAO B [7] = biological target: T2, hMAO B; conditions: cited from earlier work; remark: listed apart in the source
[8] = substrate: NCCCCc1ccccc1; experiment: Steady-state kinetics of zMAO-catalyzed amine substrate oxidation; format: biochemical, Danio rerio; conditions: other: zMAO, 25 °C, pH 7.4
[9] = substrate: NCc1ccccc1; experiment: as above; format: biochemical, Danio rerio; conditions: other: zMAO, para-substituted benzylamine; pH 7.4; 25.0 °C
[10] = substrate: NCCC(=O)c1ccccc1N; experiment: as above; format: biochemical, Danio rerio; conditions: other: zMAO, 25 °C, pH 7.4
[11] = substrate: NCCc1ccc(O)cc1; experiment: as above; format: biochemical, Danio rerio; conditions: other: zMAO, 25 °C, pH 7.4
[12] = substrate: NCCc1ccc(O)c(O)c1; experiment: purified protein, by the assay type; conditions: other: zMAO, 25 °C, pH 7.4
[13] = ref Nandigama and Edmondson (2000)
[14] = read-out: Km(H), zMAO, para-substituted benzylamine
[15] = zMAO, para-substituted benzylamine
[16] = zMAO, hMAO A specific inhibitors (Table 2), kynuramine substrate
[17] = zMAO, hMAO B specific inhibitors (Table 3), kynuramine substrate

In the case of `NCCC(=O)c1ccccc1N` [Kynuramine], the kcat ([1]; zMAO, 25 °C, pH 7.4) is listed as 1.25 s⁻¹, the kcat (hMAO B [2]; [13]) is listed as 96 ±11 ^b min^−1 and the kcat (hMAO A [3]; et al. (2002)) is listed as 125 ±8 ^a min^−1.

In the case of `NCc1ccc(C(F)(F)F)cc1` [p-CF3], the Km [1, 14] is reported as 115 ± 36 µM, the “^Dkcat” value ([1]; zMAO) is reported as 4.2 ± 0.3 min⁻¹ and the “kcat (H)” value [1, 15] is reported as 1.57 ± 0.12 s⁻¹. The “kcat (D)” value ([1]; zMAO) was 0.375 ± 0.025 s⁻¹.

For `NCCc1ccc(O)c(O)c1` [Dopamine], the kcat ([1]; zMAO, 25 °C, pH 7.4) is given as 4.03 s⁻¹, the Km (hMAO B [2]; [13]) is given as 128 ± 15 µM and the kcat (hMAO B [2]; [13]) is given as 65 ±12 ^b min^−1. The Km (hMAO A [3]; et al. (2002)) was 240 ± 42 µM and the kcat (hMAO A [3]; et al. (2002)) was 71 ±4 ^a min^−1.

`Cn1c(=O)c2c(nc(C=Cc3cccc(Cl)c3)n2C)n(C)c1=O` [8-(3-Chlorostyryl)-caffeine] gave a Ki [4] of 2.4 ± 0.6 µM.

In the case of `NCc1ccc(Br)cc1` [p-Br], the Km [1, 14] is reported as 103 ± 20 µM, the “^Dkcat” value ([1]; zMAO) is reported as 8.2 ± 0.7 min⁻¹ and the “kcat (H)” value [1, 15] is reported as 0.667 ± 0.05 s⁻¹. For the same molecule, the “kcat (D)” value ([1]; zMAO) was 0.0813 ± 0.00283 s⁻¹.

In the case of `CS(=O)(=O)O.Cc1ccc2c(c1)c1c3n2CCNC3CCC1` (stereo not drawn) [Pirlindole Mesylate], the Ki (hMAO B [5]) is listed as “No Inhibition”, the Ki [4, 16] is listed as 2.4 ± 0.4 µM and the Ki (hMAO A [6]; ref Wang, et al. (2009)) is listed as 0.92 ± 0.04 µM.

For `CC(C)=CCC/C(C)=C/CC/C(C)=C/CO` [Farnesol, trans-trans-farnesol], the Ki [4, 17] was “No inhibition”.

With `NCc1ccc(F)cc1` [p-F] the Km [1, 14] was 161 ± 8 µM, the “^Dkcat” value ([1]; zMAO) was 6.7 ± 0.2 min⁻¹ and the “kcat (H)” value [1, 15] was 0.248 ± 0.005 s⁻¹. The “kcat (D)” value ([1]; zMAO) was 0.0372 ± 0.00083 s⁻¹.

In the case of `CC(C)(C)c1ccc(CN)cc1` [p-t-Butyl], the Km [1, 14] is reported as 48 ± 6 µM, the “^Dkcat” value ([1]; zMAO) is reported as 2.0 ± 0.1 min⁻¹ and the “kcat (H)” value [1, 15] is reported as 0.115 ± 0.0033 s⁻¹. For the same molecule, the “kcat (D)” value ([1]; zMAO) was 0.0567 ± 0.0033 s⁻¹.

With `Cc1ccc(CN)cc1` [p-Me] the Km [1, 14] was 67.8 ± 4.1 µM, the “^Dkcat” value ([1]; zMAO) was 6.4 ± 0.2 min⁻¹ and the “kcat (H)” value [1, 15] was 0.115 ± 0.0017 s⁻¹. For the same molecule, the “kcat (D)” value ([1]; zMAO) was 0.018 ± 0.00033 s⁻¹.

In the case of `COc1ccc(CN)cc1` [p-MeO], the Km [1, 14] is reported as 55.5 ± 4.1 µM, the “^Dkcat” value ([1]; zMAO) is reported as 5.9 ± 0.7 min⁻¹ and the “kcat (H)” value [1, 15] is reported as 0.138 ± 0.012 s⁻¹. For the same molecule, the “kcat (D)” value ([1]; zMAO) was 0.0237 ± 0.00083 s⁻¹.

For `NCCc1ccc(O)cc1` [Tyramine], the kcat ([1]; zMAO, 25 °C, pH 7.4) is given as 7.78 s⁻¹, the kcat (hMAO A [3]; (2006), listed as tyramine) is given as 182 min⁻¹ and the Km (hMAO A [3]; (2006)) is given as 427 ± 18 µM. For the same molecule, the kcat (hMAO A [3]; (2006)) was 182 ±26 ^c min^−1.

In the case of `NCc1ccccc1` [p-H, benzylamine], the Kd [1] is reported as 3.3 µM, the “^Dkcat” value ([1]; zMAO) is reported as 2.0 ± 0.2 min⁻¹ and the “kcat (D)” value ([1]; zMAO) is reported as 0.039 ± 0.00333 s⁻¹.

For `C[C@H](N)Cc1ccccc1` [d-Amphetamine], the Mode of inhibition ([4]; zMAO catalyzed kynuramine oxidation) is given as “uncompetitive inhibitor”, the Ki [4, 16] is given as 38 ± 5.1 µM and the Mode of inhibition (hMAO A [6]; human MAO A, ref Vintém et al., 2005) is given as “competitively inhibits”. For the same molecule, the Ki (hMAO B [7]; hMAO B, ref Li, (2006)) was 280 ± 10 µM and the Mode of inhibition (hMAO B [7]; human MAO B, depending on the substrate, ref Pearce and Roth, 1985) was “either as a competitive or as a mixed inhibitor”.

For `C(=CCc1ccccc1)Cc1ccccc1` [1,4-Diphenyl-2-Butene], the Ki [4, 17] was “No inhibition”.

For `CS(=O)(=O)O.c1cc2c(cc1C1CCCCC1)c1c3n2CCNC3CCC1` (stereo not drawn) [Tetrindole Mesylate], the Ki (hMAO B [5]) is listed as “No Inhibition”, the Ki [4, 16] is listed as 34.1 ± 2 µM and the Ki (hMAO A [6]; ref Wang, et al. (2009)) is listed as 5.3 ± 0.2 µM.

In the case of `C(C=Cc1ccccc1)=Cc1ccccc1` [1,4-Diphenyl-1,3-Butadiene], the Ki [4, 17] is reported as “No inhibition”.

For `NCc1ccc(Cl)cc1` [p-CI], the Km [1, 14] was 94 ± 10 µM, the “^Dkcat” value ([1]; zMAO) was 5.9 ± .2 min⁻¹ and the “kcat (H)” value [1, 15] was 0.583 ± 0.017 s⁻¹. The “kcat (D)” value ([1]; zMAO) was 0.0983 ± 0.00283 s⁻¹.

With `NCc1ccc(C(=O)O)cc1` [p-Carboxybenzylamine] the Km ([1]; zMAO, 25 °C, pH 7.4) was 76 ± 8 µM and the kcat ([1]; zMAO, 25 °C, pH 7.4) was 0.0883 ± 0.0033 s⁻¹.

For `NCCc1c[nH]c2ccc(O)cc12` [Serotonin], the Km (hMAO B [2]; [13]) is listed as 2270 ± 310 µM and the Km (hMAO A [3]; et al. (2002)) is listed as 295 ± 46 µM.

In the case of `C[C@H](NCc1ccc(OCc2cccc(F)c2)cc1)C(N)=O` [Safinamide], the Ki [4, 17] is reported as “No inhibition”.

For `NCc1cccnc1` [3-Aminomethylpyridine], the Substrate behaviour ([1]; zMAO) is given as “Not a Substrate”, the kcat (hMAO B [2]; ref Li, (2006)) is given as 223 ±5 ^c min^−1 and the Ki (hMAO A [6]; competitive inhibitor, ref Li, (2006)) is given as 5200 µM.

`Cc1nccc2c1[nH]c1ccccc12` [Harmane] showed a Ki [4] of 0.13 ± 0.02 µM.

B1: zebrafish monoamine oxidase (zMAO) (Danio rerio) (protein)
chain: T1 sequence (Q6NSN2 1-522)
In the case of B1, the Km [8] is reported as 185 ± 17 µM, the kcat [8] is reported as 2.07 ± 0.0667 s⁻¹ and the kcat/Km [8] is reported as 11200 M⁻¹ s⁻¹. For the same molecule, the Km [9] was 82.2 ± 9.0 µM, the kcat [9] was 0.0783 ± 0.0017 s⁻¹ and the Km [10] was 58 ± 5 µM. It also gave a kcat [10] of 1.25 ± 0.0333 s⁻¹, a Km [11] of 18 ± 3 µM and a kcat [11] of 7.78 ± 0.333 s⁻¹. It also gave a Km [12] of 88 ± 14 µM and a kcat [12] of 4.03 s⁻¹.

Source: PMC3071876 (Comparative biochemistry and physiology. Part B, …, 2011)
